# Test results published in PubChem BioAssay AID200 (DTP/NCI, 2004).
# Values joined by “and” are separate entries in the source; they are usually repeats but may differ in a detail not shown here. Equal values may be shown once. Toxic doses and inconclusive results are not listed. Where a SMILES comes first, the peptide text is derived from it.
# Tested on: B6C3F1 mice, B16 melanoma ip, median survival T/C
# Experiment: NCI In Vivo Anticancer Drug Screen. Data for tumor model B16 Melanoma (intraperitoneal) in B6C3F1 mice
# Settings: endpoint: median survival time, higher = longer survival
# In short: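 Antitumor effect was judged in mice with transplanted tumors by dividing the treated group's survival measure by that of vehicle controls.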
# [1] = dose: 12.5 mg/kg/injection, schedule: Q01DX009 (ip), vehicle: Klucel (hydroxypropylcellulose) (HPC)
# [2] = dose: 25.0 mg/kg/injection, schedule: Q01DX009 (ip), vehicle: Klucel (hydroxypropylcellulose) (HPC)
# [3] = dose: 50.0 mg/kg/injection, schedule: Q01DX009 (ip), vehicle: Klucel (hydroxypropylcellulose) (HPC)
# [4] = dose: 100.0 mg/kg/injection, schedule: Q01DX009 (ip), vehicle: Klucel (hydroxypropylcellulose) (HPC)
# [5] = dose: 200.0 mg/kg/injection, schedule: Q01DX009 (ip), vehicle: Klucel (hydroxypropylcellulose) (HPC)
# [6] = dose: 400.0 mg/kg/injection, schedule: Q01DX009 (ip), vehicle: Klucel (hydroxypropylcellulose) (HPC)
# [7] = dose: 50.0 mg/kg/injection, schedule: Q01DX009 (ip), vehicle: saline
# [8] = dose: 100.0 mg/kg/injection, schedule: Q01DX009 (ip), vehicle: saline
# [9] = dose: 200.0 mg/kg/injection, schedule: Q01DX009 (ip), vehicle: saline
# [10] = dose: 12.5 mg/kg/injection, schedule: Q01DX009 (ip), vehicle: saline with Tween-80
# [11] = dose: 25.0 mg/kg/injection, schedule: Q01DX009 (ip), vehicle: saline with Tween-80
# [12] = dose: 50.0 mg/kg/injection, schedule: Q01DX009 (ip), vehicle: saline with Tween-80
# [13] = dose: 100.0 mg/kg/injection, schedule: Q01DX009 (ip), vehicle: saline with Tween-80
# [14] = dose: 200.0 mg/kg/injection, schedule: Q01DX009 (ip), vehicle: saline with Tween-80
# [15] = dose: 0.75 mg/kg/injection, schedule: Q01DX009 (ip), vehicle: saline
# [16] = dose: 1.5 mg/kg/injection, schedule: Q01DX009 (ip), vehicle: saline
# [17] = dose: 3.0 mg/kg/injection, schedule: Q01DX009 (ip), vehicle: saline
# [18] = dose: 6.0 mg/kg/injection, schedule: Q01DX009 (ip), vehicle: saline
# [19] = dose: 6.25 mg/kg/injection, schedule: Q01DX009 (ip), vehicle: saline with Tween-80
# [20] = dose: 8.0 mg/kg/injection, schedule: Q01DX009 (ip), vehicle: saline + alcohol
structure (smiles),measurement,setting,value
C[C@]12CC[C@@H]3c4ccc(OC(=O)Cc5ccc(N(CCCl)CCCl)cc5)cc4CC[C@H]3[C@@H]1CC[C@@H]2OC(=O)Cc1ccc(N(CCCl)CCCl)cc1,T/C,[1],104 % of control
same,T/C,[2],92 % of control and 103 % of control
same,T/C,[3],121 % of control and 103 % of control
same,T/C,[4],90 % of control and 93 % of control
same,T/C,[5],104 % of control
same,T/C,[6],92 % of control and 103 % of control
CC(=O)Oc1c(C)[nH]ccc1=O,T/C,"dose: 25.0 mg/kg/injection, schedule: Q01DX009 (ip), vehicle: saline",93 % of control and 104 % of control
same,T/C,[7],108 % of control and 105 % of control
same,T/C,[8],115 % of control and 94 % of control
same,T/C,[9],94 % of control and 106 % of control
O=C1OCC2(C(=O)O)C(=O)OCC12 (centres undefined),T/C,[10],105 % of control
same,T/C,[11],100 % of control
same,T/C,[12],101 % of control
same,T/C,[13],104 % of control
same,T/C,[14],90 % of control
CCCCCCCCCCCCCCCCCC(=O)OCC(=O)OCC(=O)[C@]1(O)Cc2c(O)c3c(c(O)c2[C@@H](OC2CC(N)C(O)C(C)O2)C1)C(=O)c1c(OC)cccc1C3=O (some centres undefined),T/C,[15],160 % of control and 211 % of control
same,T/C,[16],208 % of control and 333 % of control
same,T/C,[17],255 % of control and 333 % of control
same,T/C,[18],238 % of control and 333 % of control
CC(C)(C)OC(=O)NC(Cc1c[nH]c2ccccc12)C(=O)O (centres undefined),T/C,"dose: 100.0 mg/kg/injection, schedule: Q01DX009 (ip), vehicle: distilled water + alcohol",94 % of control
same,T/C,"dose: 200.0 mg/kg/injection, schedule: Q01DX009 (ip), vehicle: distilled water + alcohol",94 % of control
Clc1ccccc1N1CCN(CCCN2CCN(c3ccccc3Cl)CC2)CC1,T/C,"dose: 3.13 mg/kg/injection, schedule: Q01DX009 (ip), vehicle: saline with Tween-80",100 % of control
same,T/C,[19],95 % of control
same,T/C,[10],94 % of control
same,T/C,[11],99 % of control
Nc1nc(N)c(N=O)c(Nc2ccc(I)cc2)n1,T/C,[12],115 % of control
same,T/C,[13],110 % of control
same,T/C,[14],98 % of control
COc1c(C=O)c2c(c(OC)c1OC)-c1ccc(OC)c(=O)cc1[C@@H](NC(C)=O)CC2,T/C,"dose: 0.78 mg/kg/injection, schedule: Q01DX009 (ip), vehicle: Klucel (hydroxypropylcellulose) (HPC)",116 % of control
same,T/C,"dose: 1.56 mg/kg/injection, schedule: Q01DX009 (ip), vehicle: Klucel (hydroxypropylcellulose) (HPC)",111 % of control and 121 % of control and 124 % of control
same,T/C,"dose: 3.12 mg/kg/injection, schedule: Q01DX009 (ip), vehicle: Klucel (hydroxypropylcellulose) (HPC)",123 % of control and 107 % of control
same,T/C,"dose: 6.25 mg/kg/injection, schedule: Q01DX009 (ip), vehicle: Klucel (hydroxypropylcellulose) (HPC)",116 % of control
same,T/C,[1],120 % of control
same,T/C,"dose: 12.6 mg/kg/injection, schedule: Q01DX009 (ip), vehicle: Klucel (hydroxypropylcellulose) (HPC)",114 % of control
COC(=O)[C@@]12OC[C@]34[C@H]([C@@H](O)[C@@H]1O)[C@@]1(C)CC(=O)C(O)=C(C)[C@@H]1C[C@H]3OC(=O)[C@H](OC(=O)/C=C(\C)C(C)CO)[C@@H]24 (some centres undefined),T/C,"dose: 6.0 mg/kg/injection, schedule: Q01DX009 (ip), vehicle: saline + alcohol",174 % of control
same,T/C,[20],161 % of control and 173 % of control
CCCCCCCCCCCCCCCCCC1=NC(C)CC(C)(C)O1 (centres undefined),T/C,[7],96 % of control
same,T/C,[8],94 % of control
same,T/C,[9],94 % of control
N#CCCN(C(=S)Nc1cccc(C(F)(F)F)c1)C1CCCCC1,T/C,"dose: 12.5 mg/kg/injection, schedule: Q01DX009 (ip), vehicle: suspension in saline",102 % of control
same,T/C,"dose: 25.0 mg/kg/injection, schedule: Q01DX009 (ip), vehicle: suspension in saline",100 % of control
same,T/C,"dose: 50.0 mg/kg/injection, schedule: Q01DX009 (ip), vehicle: suspension in saline",101 % of control
same,T/C,[13],113 % of control
same,T/C,"dose: 100.0 mg/kg/injection, schedule: Q01DX009 (ip), vehicle: suspension in saline",107 % of control
same,T/C,[14],94 % of control
same,T/C,"dose: 200.0 mg/kg/injection, schedule: Q01DX009 (ip), vehicle: suspension in saline",113 % of control
same,T/C,"dose: 400.0 mg/kg/injection, schedule: Q01DX009 (ip), vehicle: saline with Tween-80",89 % of control
same,T/C,"dose: 400.0 mg/kg/injection, schedule: Q01DX009 (ip), vehicle: suspension in saline",103 % of control
CS(=O)(=O)CS(=O)(=O)OCCCl,T/C,[19],114 % of control
same,T/C,[10],116 % of control
same,T/C,[11],169 % of control and 178 % of control
same,T/C,[12],228 % of control and 270 % of control
same,T/C,[13],331 % of control
Cc1ccc(C2NC(=S)N3C(c4ccc(C)cc4)NC(=S)N23)cc1 (centres undefined),T/C,[2],119 % of control
same,T/C,[3],114 % of control
same,T/C,[4],118 % of control
same,T/C,[5],109 % of control and 88 % of control
same,T/C,[6],114 % of control and 105 % of control
same,T/C,"dose: 800.0 mg/kg/injection, schedule: Q01DX009 (ip), vehicle: Klucel (hydroxypropylcellulose) (HPC)",101 % of control
COc1cc2c(cc1O)C1C(O)C(O)C=C3CCN(C2)C31 (centres undefined),T/C,"dose: 4.0 mg/kg/injection, schedule: Q01DX009 (ip), vehicle: saline + alcohol",114 % of control
same,T/C,[20],100 % of control
same,T/C,"dose: 16.0 mg/kg/injection, schedule: Q01DX009 (ip), vehicle: saline + alcohol",105 % of control
same,T/C,"dose: 32.0 mg/kg/injection, schedule: Q01DX009 (ip), vehicle: saline + alcohol",102 % of control
COc1cccc2c1C(=O)c1c(O)c3c(c(O)c1C2=O)C[C@@](O)(/C(CO)=N/NC(=O)c1ccc(Cl)c(Cl)c1)C[C@@H]3OC1CC(N)C(O)C(C)O1 (some centres undefined),T/C,"dose: 1.0 mg/kg/injection, schedule: Q01DX009 (ip), vehicle: saline",188 % of control
same,T/C,"dose: 2.0 mg/kg/injection, schedule: Q01DX009 (ip), vehicle: saline",190 % of control
same,T/C,"dose: 4.0 mg/kg/injection, schedule: Q01DX009 (ip), vehicle: saline",250 % of control
same,T/C,"dose: 8.0 mg/kg/injection, schedule: Q01DX009 (ip), vehicle: saline",267 % of control
same,T/C,"dose: 16.0 mg/kg/injection, schedule: Q01DX009 (ip), vehicle: saline",357 % of control
NCC(=O)NC(CC(N)=O)C(=O)O (centres undefined) (HELM PEPTIDE1{G.[NC(=O)CC(N[*:1])C(=O)O]}$$$$V2.0),T/C,[7],98 % of control
same,T/C,[8],91 % of control
same,T/C,[9],93 % of control
COc1cccc2c1C(=O)c1c(O)c3c(c(O)c1C2=O)C[C@@](O)(C(O)CO)C[C@@H]3OC1CC(N(Cc2ccccc2)Cc2ccccc2)C(O)C(C)O1 (some centres undefined),T/C,"dose: 6.25 mg/kg/injection, schedule: Q01DX001 (ip), vehicle: water",111 % of control
same,T/C,"dose: 50.0 mg/kg/injection, schedule: Q01DX001 (ip), vehicle: water",166 % of control
same,T/C,"dose: 50.0 mg/kg/injection, schedule: Q01DX009 (ip), vehicle: water",160 % of control
same,T/C,"dose: 100.0 mg/kg/injection, schedule: Q01DX001 (ip), vehicle: water",196 % of control
same,T/C,"dose: 200.0 mg/kg/injection, schedule: Q01DX001 (ip), vehicle: water",232 % of control
COc1nc(C(Cl)(Cl)Cl)c(Cl)c(OC)c1Cl,T/C,[2],96 % of control
same,T/C,[3],104 % of control
S=c1sc2ccccc2n1CN1CCOCC1,T/C,[10],99 % of control and 102 % of control
same,T/C,"dose: 18.0 mg/kg/injection, schedule: Q01DX009 (ip), vehicle: saline with Tween-80",89 % of control
same,T/C,[11],109 % of control and 112 % of control
same,T/C,"dose: 30.0 mg/kg/injection, schedule: Q01DX009 (ip), vehicle: saline with Tween-80",91 % of control
same,T/C,[12],113 % of control and 100 % of control
same,T/C,"dose: 83.33 mg/kg/injection, schedule: Q01DX009 (ip), vehicle: saline with Tween-80",100 % of control
same,T/C,[13],102 % of control and 105 % of control
same,T/C,"dose: 138.88 mg/kg/injection, schedule: Q01DX009 (ip), vehicle: saline with Tween-80",106 % of control
same,T/C,[14],95 % of control and 101 % of control
CCCCNC(C)[C@]1(O)Cc2c(O)c3c(c(O)c2[C@@H](OC2CC(N)C(O)C(C)O2)C1)C(=O)c1c(OC)cccc1C3=O (some centres undefined),T/C,[15],162 % of control and 163 % of control
same,T/C,[16],211 % of control and 232 % of control
same,T/C,[17],235 % of control and 333 % of control
same,T/C,[18],229 % of control and 95 % of control
C(=C\c1nc2ccccc2[nH]1)/c1nc2ccccc2[nH]1,T/C,[11],96 % of control
same,T/C,[12],98 % of control
same,T/C,[14],87 % of control
